Test results reported in patent publication US20240092779A1, “USP1 INHIBITORS AND USES THEREOF” (Zentaur Therapeutics USA Inc., priority 2022, published 2024).
Values after ≈ are worked out from the molar mass of the structure shown.

Tests used:
[1] = system: MDA-MB-436 cells; assay: CTG Protocol (MDA-MB-436 GI50), antiproliferative activity; type: cell-based, human; details: Homo sapiens, 168 h; MDA-MB-436 cells (BRCA1 mutation), 7-day incubation, CellTiter-Glo
How it was run: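 BRCA1-mutant MDA-MB-436 cells were seeded at 1000 cells/well in DMEM, left overnight, then exposed to a 9-point, 3-fold compound series for 7 days at 37 °C, 5% CO2. Viability was read by CellTiter-Glo luminescence. % inhibition was plotted against concentration to derive GI50.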

[2] = Solubility in FaSSIF (Fasted State Simulated Intestinal Fluid); type: physicochemical; details: kinetic from dmso stock, FaSSIF pH 6.5, 25° C.
How it was run: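 Apparent solubility measured in FaSSIF at pH 6.5 from a 10 mM DMSO stock, shaken at 25° C, 1100 RPM for 2 h and then filtered. Filtrate quantified by LC/MS/MS against a 3 μM standard with internal standard, corrected by dilution factor.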

[3] = Liver microsomal stability (HLM); type: in vitro ADME; details: human, liver microsomes, human liver microsomes 0.5 mg/mL, 1 μM compound, NADPH

| GI50 [1] | solubility at 2 h [2] | microsomal CLint at 1 μM [3] | SMILES |
| --- | --- | --- | --- |
| 10 to 100 nM | < 10 µM | < 10 µL/min/mg | COc1ncnc(C2CC2)c1-c1ncc2ccc(=O)n(Cc3ccc(-c4nc(C(F)(F)F)cn4C(C)C)cc3)c2c1F [Compound I-27, 7-(4-cyclopropyl-6-methoxypyrimidin-5-yl)-8-fluoro-1-({4-[1-isopropyl-4-(trifluoromethyl)imidazol-2-yl]phenyl}methyl)-1,6-naphthyridin-2-one] |
| < 10 nM | 10 to 100 µM (≈ 6.55 to 65.5 µg/mL) | < 10 µL/min/mg | COc1ncnc(C2CC2)c1-c1ncc2cc(-c3c(C)noc3C)c(=O)n(Cc3ccc(-c4nc(C(F)(F)F)cn4C4CC4)cc3)c2n1 [Compound I-155] |
| < 10 nM | ≥ 100 µM | < 10 µL/min/mg | COc1ncnc(C2CC2)c1-c1nc(C)c2cc(-c3cnn(C)c3)c(=O)n(Cc3ccc(-c4nc(C(F)(F)F)cn4C4CC4)cc3)c2n1 [Compound I-148, 8-({4-[1-Cyclopropyl-4-(Trifluoromethyl)Imidazol-2-Yl]Phenyl}Methyl)-2-(4-Cyclopropyl-6-Methoxypyrimidin-5-Yl)-4-Methyl-6-(1-Methylpyrazol-4-Yl)Pyrido[2,3-d]Pyrimidin-7-One] |
| 10 to 100 nM | 10 to 100 µM (≈ 6.55 to 65.5 µg/mL) | < 10 µL/min/mg | COc1ncnc(C2CC2)c1-c1nc(C)c2cc(-c3ncnn3C)c(=O)n(Cc3ccc(-c4nc(C(F)(F)F)cn4C4CC4)cc3)c2n1 [Compound I-167, 8-({4-[1-Cyclopropyl-4-(Trifluoromethyl)Imidazol-2-Yl]Phenyl}Methyl)-2-(4-Cyclopropyl-6-Methoxypyrimidin-5-Yl)-4-Methyl-6-(2-Methyl-1,2,4-Triazol-3-Yl)Pyrido[2,3-d]Pyrimidin-7-One] |
| 10 to 100 nM | 10 to 100 µM (≈ 6.41 to 64.1 µg/mL) | < 10 µL/min/mg | COc1ncnc(C2CC2)c1-c1ncc2cc(-c3cn(C)nn3)c(=O)n(Cc3ccc(-c4nc(C(F)(F)F)cn4C4CC4)cc3)c2n1 [Compound I-150] |
| < 10 nM | ≥ 100 µM | < 10 µL/min/mg | COc1cc(Cn2c(=O)ccc3c(C)nc(-c4c(OC)ncnc4C4CC4)nc32)ccc1-c1nc(C(F)(F)F)cn1C1CC1 [Compound I-152, 8-({4-[1-cyclopropyl-4-(trifluoromethyl)imidazo]-2-yl]-3-methoxyphenylmethyl)-2-(4-cyclopropyl-6-methoxypyrimidin-5-yl)-4-methylpyrido[2,3-d]pyrimidin-7-one] |
| 10 to 100 nM | < 10 µM | 10 to 50 µL/min/mg | COc1ncnc(C2CC2)c1-c1ncc2ccc(=O)n(Cc3ccc(-c4cccc(C(F)(F)F)n4)cc3)c2n1 [Compound I-36, 2-(4-cyclopropyl-6-methoxypyrimidin-5-yl)-8-({4-[6-(trifluoromethyl)pyridin-2-yl]phenyl}methyl)pyrido[2,3-d]pyrimidin-7-one] |
| 10 to 100 nM | ≥ 100 µM | < 10 µL/min/mg | COc1ncnc(C2CC2)c1-c1ncc2cc(-c3ncn(C)n3)c(=O)n(Cc3ccc(-c4nc(C(F)(F)F)cn4C4CC4)cc3)c2n1 [Compound I-153, 8-({4-[1-cyclopropyl-4-(trifluoromethyl)imidazo]-2-yl]phenylmethyl)-2-(4-cyclopropyl-6-methoxypyrimidin-5-yl)-6-(1-methyl-1,2,4-triazol-3-yl)pyrido[2,3-d]pyrimidin-7-one] |
| < 10 nM | ≥ 100 µM | < 10 µL/min/mg | COc1ncnc(C2CC2)c1-c1nc(C)c2cc(C3CCN(C)CC3)c(=O)n(Cc3ccc(-c4nc(C(F)(F)F)cn4C4CC4)cc3)c2n1 [Compound I-157, 8-({4-[1-Cyclopropyl-4-(Trifluoromethyl)Imidazol-2-Yl]Phenyl}Methyl)-2-(4-Cyclopropyl-6-Methoxypyrimidin-5-Yl)-4-Methyl-6-(1-Methylpiperidin-4-Yl)Pyrido[2,3-d]Pyrimidin-7-One] |
| 10 to 100 nM | ≥ 100 µM | < 10 µL/min/mg | COc1ncnc(C2CC2)c1-c1ncc2cc(-c3ncnn3C)c(=O)n(Cc3ccc(-c4nc(C(F)(F)F)cn4C4CC4)cc3)c2n1 [Compound I-156] |
| < 10 nM | 10 to 100 µM (≈ 6.22 to 62.2 µg/mL) | < 10 µL/min/mg | COc1cc(Cn2c(=O)ccc3c(C)nc(-c4c(OC)ncnc4C4CC4)nc32)cc(F)c1-c1nc(C(F)(F)F)cn1C1CC1 [Compound I-163] |
| 10 to 100 nM | 10 to 100 µM (≈ 6.43 to 64.3 µg/mL) | < 10 µL/min/mg | COc1ncnc(C2CC2)c1-c1ncc2cc(-c3ncnn3C)c(=O)n(Cc3ccc(-c4nc(C(F)(F)F)cn4C(C)C)cc3)c2n1 [Compound I-168, 2-(4-Cyclopropyl-6-Methoxypyrimidin-5-Yl)-8-({4-[1-Isopropyl-4-(Trifluoromethyl)Imidazol-2-Yl]Phenyl}Methyl)-6-(2-Methyl-1,2,4-Triazol-3-Yl)Pyrido[2,3-d]Pyrimidin-7-One] |
| 10 to 100 nM | 10 to 100 µM (≈ 6.41 to 64.1 µg/mL) | < 10 µL/min/mg | COc1ncnc(C2CC2)c1-c1ncc2cc(-c3cnn(C)n3)c(=O)n(Cc3ccc(-c4nc(C(F)(F)F)cn4C4CC4)cc3)c2n1 [Compound I-151] |
